In the supplement of paper PMC10307832:

Legend:
Test in all cases: relative viability (nuclei count vs DMSO), 5 days (fraction); higher = more cells survive
BEN = tested on: BEN
Method in brief: (§1)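 Relative viability equals treated-well nuclei counts divided by vehicle-well nuclei counts. Counts came from 4× images of lung cancer cell lines grown in 1536-well plates for 5 days after pin-tool dosing on the day after seeding. Dosing used one drug alone or a fixed anchor-drug dose plus five library-drug doses (not always all listed) in √10 steps, and values are medians of duplicate plates.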

CAL-12T = tested on: CAL-12T
Method in brief: as §1

COR-L23 = tested on: COR-L23
Method in brief: as §1

HCC-366 = tested on: HCC-366
Method in brief: as §1

LOU-NH91 = tested on: LOU-NH91
Method in brief: as §1

LU99A = tested on: LU99A
Method in brief: as §1

NCI-H1355 = tested on: NCI-H1355
Method in brief: as §1

NCI-H1437 = tested on: NCI-H1437
Method in brief: as §1

NCI-H1563 = tested on: NCI-H1563
Method in brief: as §1

NCI-H1651 = tested on: NCI-H1651
Method in brief: as §1

NCI-H1734 = tested on: NCI-H1734
Method in brief: as §1

NCI-H1793 = tested on: NCI-H1793
Method in brief: as §1

NCI-H1975 = tested on: NCI-H1975
Method in brief: as §1

NCI-H2023 = tested on: NCI-H2023
Method in brief: as §1

NCI-H2085 = tested on: NCI-H2085
Method in brief: as §1

NCI-H358 = tested on: NCI-H358
Method in brief: as §1

NCI-H441 = tested on: NCI-H441
Method in brief: as §1

NCI-H460 = tested on: NCI-H460
Method in brief: as §1

NCI-H838 = tested on: NCI-H838
Method in brief: as §1

SK-LU-1 = tested on: SK-LU-1
Method in brief: as §1

**Q.** Which results are given for `O=c1cc(-c2cccc3c2Sc2ccccc2S3)oc(N2CCOCC2)c1` + Cc1nc(NC(=O)N2CCC[C@H]2C(N)=O)sc1-c1ccnc(C(C)(C)C(F)(F)F)c1 [Alpelisib] (partner 2 µM)?
**A.** relative viability (BEN; first compound 0.08 µM): 0.912; relative viability (BEN; first compound 0.253 µM): 1.06; relative viability (BEN; first compound 0.8 µM): 1.32; relative viability (BEN; first compound 2.53 µM): 1; relative viability (BEN; first compound 8 µM): 1.46; relative viability (CAL-12T; first compound 0.08 µM): 1.17; relative viability (CAL-12T; first compound 0.253 µM): 1.28; relative viability (CAL-12T; first compound 0.8 µM): 1.56; relative viability (CAL-12T; first compound 2.53 µM): 1.1; relative viability (CAL-12T; first compound 8 µM): 0.724; relative viability (COR-L23; first compound 0.08 µM): 0.867; relative viability (COR-L23; first compound 0.253 µM): 1.15; relative viability (COR-L23; first compound 0.8 µM): 0.887; relative viability (COR-L23; first compound 2.53 µM): 0.786; relative viability (COR-L23; first compound 8 µM): 0.984; relative viability (HCC-366; first compound 0.08 µM): 0.345; relative viability (HCC-366; first compound 0.253 µM): 0.547; relative viability (HCC-366; first compound 0.8 µM): 0.269; relative viability (HCC-366; first compound 2.53 µM): 0.312; relative viability (HCC-366; first compound 8 µM): 0.318; relative viability (LOU-NH91; first compound 0.08 µM): 0.724; relative viability (LOU-NH91; first compound 0.253 µM): 0.764; relative viability (LOU-NH91; first compound 0.8 µM): 0.632; relative viability (LOU-NH91; first compound 2.53 µM): 0.593; relative viability (LOU-NH91; first compound 8 µM): 0.713; relative viability (LU99A; first compound 0.08 µM): 0.507; relative viability (LU99A; first compound 0.253 µM): 0.567; relative viability (LU99A; first compound 0.8 µM): 0.747; relative viability (LU99A; first compound 2.53 µM): 0.504; relative viability (LU99A; first compound 8 µM): 0.575; relative viability (NCI-H1355; first compound 0.08 µM): 0.726; relative viability (NCI-H1355; first compound 0.253 µM): 0.949; relative viability (NCI-H1355; first compound 0.8 µM): 0.601; relative viability (NCI-H1355; first compound 2.53 µM): 0.748; relative viability (NCI-H1355; first compound 8 µM): 0.704; relative viability (NCI-H1437; first compound 0.08 µM): 1.07; relative viability (NCI-H1437; first compound 0.253 µM): 1.08; relative viability (NCI-H1437; first compound 0.8 µM): 1.15; relative viability (NCI-H1437; first compound 2.53 µM): 0.989; relative viability (NCI-H1437; first compound 8 µM): 1.08; relative viability (NCI-H1563; first compound 0.08 µM): 0.917; relative viability (NCI-H1563; first compound 0.253 µM): 1.04; relative viability (NCI-H1563; first compound 0.8 µM): 0.853; relative viability (NCI-H1563; first compound 2.53 µM): 0.848; relative viability (NCI-H1563; first compound 8 µM): 0.822; relative viability (NCI-H1651; first compound 0.08 µM): 1.02; relative viability (NCI-H1651; first compound 0.253 µM): 1.02; relative viability (NCI-H1651; first compound 0.8 µM): 1.08; relative viability (NCI-H1651; first compound 2.53 µM): 0.963; relative viability (NCI-H1651; first compound 8 µM): 1.21; relative viability (NCI-H1734; first compound 0.08 µM): 0.595; relative viability (NCI-H1734; first compound 0.253 µM): 0.841; relative viability (NCI-H1734; first compound 0.8 µM): 0.729; relative viability (NCI-H1734; first compound 2.53 µM): 0.662; relative viability (NCI-H1734; first compound 8 µM): 0.706; relative viability (NCI-H1793; first compound 0.08 µM): 0.498; relative viability (NCI-H1793; first compound 0.253 µM): 0.782; relative viability (NCI-H1793; first compound 0.8 µM): 0.692; relative viability (NCI-H1793; first compound 2.53 µM): 0.55; relative viability (NCI-H1793; first compound 8 µM): 0.689; relative viability (NCI-H1975; first compound 0.08 µM): 0.722; relative viability (NCI-H1975; first compound 0.253 µM): 0.786; relative viability (NCI-H1975; first compound 0.8 µM): 0.656; relative viability (NCI-H1975; first compound 2.53 µM): 0.498; relative viability (NCI-H1975; first compound 8 µM): 0.452; relative viability (NCI-H2023; first compound 0.08 µM): 0.593; relative viability (NCI-H2023; first compound 0.253 µM): 0.82; relative viability (NCI-H2023; first compound 0.8 µM): 0.59; relative viability (NCI-H2023; first compound 2.53 µM): 0.57; relative viability (NCI-H2023; first compound 8 µM): 0.49; relative viability (NCI-H2085; first compound 0.08 µM): 0.907; relative viability (NCI-H2085; first compound 0.253 µM): 0.93; relative viability (NCI-H2085; first compound 0.8 µM): 1.05; relative viability (NCI-H2085; first compound 2.53 µM): 0.779; relative viability (NCI-H2085; first compound 8 µM): 0.72; relative viability (NCI-H358; first compound 0.08 µM): 0.776; relative viability (NCI-H358; first compound 0.253 µM): 0.824; relative viability (NCI-H358; first compound 0.8 µM): 0.816; relative viability (NCI-H358; first compound 2.53 µM): 0.786; relative viability (NCI-H358; first compound 8 µM): 0.795; relative viability (NCI-H441; first compound 0.08 µM): 0.736; relative viability (NCI-H441; first compound 0.253 µM): 0.933; relative viability (NCI-H441; first compound 0.8 µM): 1.2; relative viability (NCI-H441; first compound 2.53 µM): 0.551; relative viability (NCI-H441; first compound 8 µM): 0.691; relative viability (NCI-H460; first compound 0.08 µM): 0.472; relative viability (NCI-H460; first compound 0.253 µM): 0.682; relative viability (NCI-H460; first compound 0.8 µM): 0.451; relative viability (NCI-H460; first compound 2.53 µM): 0.57; relative viability (NCI-H460; first compound 8 µM): 0.394; relative viability (NCI-H838; first compound 0.08 µM): 0.967; relative viability (NCI-H838; first compound 0.253 µM): 1.33; relative viability (NCI-H838; first compound 0.8 µM): 0.951; relative viability (NCI-H838; first compound 2.53 µM): 0.903; relative viability (NCI-H838; first compound 8 µM): 1.06; relative viability (SK-LU-1; first compound 0.08 µM): 1.03; relative viability (SK-LU-1; first compound 0.253 µM): 1.12; relative viability (SK-LU-1; first compound 0.8 µM): 1.26; relative viability (SK-LU-1; first compound 2.53 µM): 0.991; relative viability (SK-LU-1; first compound 8 µM): 0.977
